# Experimental data published in ChEMBL document CHEMBL1152426, “Synthetic strategies toward carbocyclic purine-pyrimidine hybrid nucleosides” (Bioorg Med Chem, 2009).
# The source made the active and inactive calls. The rule behind the calls is not given here.
# Experiments:
# [1] = Inhibition of S-adenosylhomocystein hydrolase
# [2] = Inhibition of DNA methyltransferase
# [3] = Inhibition of S-adenosylhomocystein hydrolase in presence of 10 uM of S-adenosylhomocystein
# [4] = Inhibition of S-adenosylhomocystein hydrolase at 45 uM in presence of S-adenosylhomocystein
Activity [1],Activity [2],Ki [1],Activity [3],Activity [4],SMILES
inactive,inactive,–,–,–,O=c1[nH]c(=O)n([C@@H]2CC[C@@H](O)[C@H]2O)c2ncsc12
–,inactive,5 µM,Active,Active,O=c1[nH]c(=O)n([C@@H]2CC[C@@H](O)[C@H]2O)c2nc[nH]c12
